In EP1204866B1, “IMMUNOASSAY FOR PESTICIDES AND THEIR DEGRADATION PRODUCTS” (priority 1999, dated 2001):
Several values for one entry are separate records, joined by “and”; a condition that tells them apart may be missing. Equal entries are not always repeated. Entries after “also recorded” stand apart in the source; their conditions may differ.

Legend:
HYB 273-1 = assay: competitive ELISA (immunoassay) for BAM with monoclonal antibody on hapten-coated microtitre plates; format: binding, mice
Protocol: The cross reactivity of an assay is a measure of its specificity for the analyte relative to similar or related compounds. It is useful in assessing its accuracy in crude samples with several potential haptens. Standard curves based on the 4-parameter-logistic equation (eq 1) were generated for a series of analytes (Table 3) in the range 100 to 0 mg/L (10-fold titrations). The IC50 value (C*) for each analyte was then compared with the IC50 of BAM (C) in equation 3. CR = ((C)/(C*)) × 100% [formula] • CR: cross-reactivity [%] • C: value of IC50 for BAM [µg/L] • C*: value of IC50 for cross-reacting analyte [µg/L]
Standards were used to generate comparative standard curves. The standards were added to hapten-coated plates followed by a known amount of antibody, such as HYB 273-1 in buffer. The plate was incubated for 1 hour, washed, and incubated with RαM^HRP, an enzyme label and incubated for 1 hour. After extensive washing, the enzyme substrate TMB-Plus was added. The colour development was stopped using acid and the absorbance read at 450 nm.
The standards were used to generate a semi-log graph based on the 4-parameter-logistic method (Rodbard, 1974: equation 1). Y = ((A-D))/([1+(((X)/(C)))^B]) + D [formula] • X: concentration of analyte (µg/L). • Y: absorbance at 450 nm (A450). • A: maximum absorbance (upper asymptote). • D: minimum absorbance (lower asymptote). • C: midpoint between A and D. Extrapolation to x-axis yields the value of IC50 (µg/L). • B: slope for the transition between A and D
The signals were normalised according to equation 2 %(B)/(B0) = (A-Axs)/(A0 -Axs) × 100 [formula] • B : concentration of bound antibody and • B0 : concentration of bound antibody in the absence of analyte.
On the plot, 100 % corresponds to the absorption of the zero control (A0: 0 µg/L) and 0 % corresponds to the absorption of an excess control (Axs: 100 µg/L). The normalised signals were plotted vs. BAM concentration and the four-parameter-logistic equation (eq 1) was fitted to the experimental points.
i) Passive adsorption: A MaxiSorp™ microtitre plate was filled by a stationary dispensor with 200 µL/well BAM-OA (16.7 ng/mL) in coating buffer. After coating over night at 4°C the plate was washed 4 times with de-ionised water and dried 30 min at 37°C. The plate was either used immediately or sealed with tape lid and stored at room temperature in the dark until use.
A PolySorp™microtitre plate was filled by a stationary dispensor with 200 µL/well BAM-OA-AQ (50 ng/mL) in 0.1 × PBS. After being exposed to uv-light (300-400 nm) at 34°C for 30 min, the plate was washed 4 times with de-ionised water and dried 30 min at 37°C. […]
Standards (in Milli-Q® water) and samples (150 µL) were added to the hapten-coated plate followed by the addition of 50 µL antibody (HYB 273-1) diluted in 10 × PBST (66.7 ng/mL). […] The colour development was stopped after 10 minutes by adding 50 µL/well 1 M H2SO4 and the absorbance was read at 450 nm. […] Y = ((A-D))/([1+(((X)/(C)))^B]) + D [formula] • X: concentration of analyte (µg/L). • Y: absorbance at 450 nm (A450). • A: maximum absorbance (upper asymptote). • D: minimum absorbance (lower asymptote). • C: midpoint between A and D. Extrapolation to x-axis yields the value of IC50 (µg/L). • B: slope for the transition between A and D
These calculations were executed automatically by the software package SOFTmax® PRO Version 2.2 upon reading the microtitre plates. […]

[1] = tested on: Balb/c×CF1 F1-hybrid mice; assay: immunisation of mice with hapten-polymer carrier complex and generation of monoclonal antibodies; format: in vivo; conditions: hapten bound to polymer carrier (ovalbumin)
Protocol: Live mice were primed for immunisation by an intraperitoneal injection of live BCG-vaccine one month before immunisation. The antigen (hapten-OA complex), once adsorbed onto Al(OH)3, was injected intraperitonally and test bleedings were collected. When antibody titre's exceeded 1:2000, mice were considered ready for fusion and the method described by Köhler and Milstein (1975) was employed with minor modifications. Monoclonal antibodies were selected on basis of titre, affinity and specificity. Selected clones were recloned until monoclonality and stored frozen at -80 °C.
Ten to twelve weeks old female Balb/c×CF1 F1-hybrid mice were used for immunisation. 5 One month before immunisation they were primed with 0.2 mL live BCG-vaccine intraperitonally. The antigen ([…] carrier/immunogen) was absorbed onto Al(OH)3 as an adjuvant. The total volume of vaccine per immunisation was 200 µL, containing […] of antigen and […] of adjuvant. The antigen was injected intraperitonally with 2-weeks intervals. Test bleedings were collected 10 days after immunisation and assayed in ELISA.
When antibody titre's exceeded 1:2000, mice were regarded ready for fusion. The procedure as described by Köhler and Milstein (1975) was employed with minor modifications. Monoclonal antibodies were selected on basis of titre, affinity and specificity. […]

**Q.** Which cross-reactivity (HYB 273-1; IC50 of BAM divided by IC50 of analyte x 100, analytes assayed up to 100 mg/L, antibody HYB 273-1) does the source give for NC(=O)c1ccc(Cl)cc1Cl [2,4-dichlorobenzamide] here?
**A.** 3.8%

**Q.** With NC(=O)c1c(Cl)cccc1Cl [BAM, 2,6-dichlorobenzamide] as the compound, how does the IC50 (HYB 273-1; covalently immobilised (photocoupled) plates, PolySorp, BAM-OA-AQ, Figure 3A) read?
**A.** 0.189 ng/mL and 0.19 ng/mL

**Q.** What about the IC50 (HYB 273-1; passively adsorbed plates, MaxiSorp, BAM-OA, Figure 3B) of the same compound?
**A.** 0.144 ng/mL and 0.14 ng/mL

**Q.** What about the “DL15 (detection limit, analyte concentration giving a 15 % decrease in maximum signal)” value (HYB 273-1; photo catalysed covalent immobilisation, Figure 3A) of the same compound?
**A.** 0.02 µg/L

**Q.** And the “DL15 (detection limit, analyte concentration giving a 15 % decrease in maximum signal)” value (HYB 273-1; surfaces immobilised by passive adsorption, Figure 3B)?
**A.** 0.045 µg/L

**Q.** Which immunoresponse on immunisation [1] does the source give for “N-(5-carboxypentyl)-2,4-dichloro-3-amido aniline [EQ-0031]” here?
**A.** good responses were generated and several clones were produced; also recorded: generated good immunoresponse
